Assay results taken from patent publication US8247211B2, “Glycopeptide antibiotics” (American Cyanamid Company, priority 2001, dated 2012).

What was measured:
Test in all cases: In vitro antibacterial evaluation: minimum inhibitory concentration (MIC), broth dilution method
Format in all cases: cell-based
Conditions in all cases: 18 hours at 35° C.
Staphylococcus sp. = test system: Staphylococcus sp.
In short: (§1)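 Inoculum: 5×10^5 CFU/mL. Range: 64-0.06 μg/mL. Medium: Muller-Hinton II […]; NCCLS M7-A2 broth dilution. Endpoint: lowest concentration inhibiting growth. Strains include methicillin-, penicillin- and/or vancomycin-resistant clinical isolates.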

Escherichia coli = test system: Escherichia coli
In short: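 Values are minimum inhibitory concentrations, meaning the smallest antibiotic concentration that stops growth of the organism. They come from broth dilution in Muller-Hinton II […] per NCCLS guidance (M7-A2), using 5×10^5 CFU/mL and concentrations from 64 to 0.06 μg/mL.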

Streptococcus sp. = test system: Streptococcus sp.
In short: as §1

Enterococcus sp. = test system: Enterococcus sp.
In short: as §1

Substance: γ-O-[(Heptylamino)carbonyl]-cyclo[glycyl-β-methylphenylalanyl-O-(4-O-hexopyranosylhexopyranosyl)tyrosyl-3-(2-iminoimidazolidin-4-yl)seryl-3-(3-hexopyranosyl-2-iminoimidazolidin-4-yl)serylseryl] [Example 253b]
- MIC Coagulase Negative Staphylococcus (GC 4547) (Staphylococcus sp.; Coagulase Negative Staphylococcus (GC 4547)): 4 µg/mL
- MIC Coagulase Negative Staphylococcus (GC 4548) (Staphylococcus sp.; Coagulase Negative Staphylococcus (GC 4548)): 2 µg/mL
- MIC Coagulase Negative Staphylococcus (GC 4549) (Staphylococcus sp.; Coagulase Negative Staphylococcus (GC 4549)): 2 µg/mL
- MIC Coagulase Negative Staphylococcus (GC 4551) (Staphylococcus sp.; Coagulase Negative Staphylococcus (GC 4551)): 4 µg/mL
- MIC Coagulase Negative Staphylococcus (GC 6257) (Staphylococcus sp.; Coagulase Negative Staphylococcus (GC 6257)): 2 µg/mL
- MIC Staphylococcus aureus (ATCC 29213) (Staphylococcus sp.; Staphylococcus aureus (ATCC 29213)): 4 µg/mL
- MIC Staphylococcus aureus (GC 1131) (Staphylococcus sp.; Staphylococcus aureus (GC 1131)): 4 µg/mL
- MIC Staphylococcus aureus (GC 3051) (Staphylococcus sp.; Staphylococcus aureus (GC 3051)): 2 µg/mL
- MIC Staphylococcus aureus (GC 3053) (Staphylococcus sp.; Staphylococcus aureus (GC 3053)): 8 µg/mL
- MIC Staphylococcus aureus (GC 4541) (Staphylococcus sp.; Staphylococcus aureus (GC 4541)): 2 µg/mL
- MIC Staphylococcus aureus (GC 4542) (Staphylococcus sp.; Staphylococcus aureus (GC 4542)): 4 µg/mL
- MIC Staphylococcus aureus (GC 4544) (Staphylococcus sp.; Staphylococcus aureus (GC 4544)): 4 µg/mL
- MIC Staphylococcus aureus (GC 4545) (Staphylococcus sp.; Staphylococcus aureus (GC 4545)): 2 µg/mL
- MIC Staphylococcus aureus-SMITH (GC 4543) (Staphylococcus sp.; Staphylococcus aureus-SMITH (GC 4543)): 2 µg/mL
- MIC Staphylococcus haemolyticus (GC 4546) (Staphylococcus sp.; Staphylococcus haemolyticus (GC 4546)): 2 µg/mL
- MIC Staphylococcus aureus (ATCC 29213) (Staphylococcus sp.; broth dilution, strain ATCC 29213): 4 µg/mL
- MIC Staphylococcus aureus (GC 1131) (Staphylococcus sp.; broth dilution, strain GC 1131): 4 µg/mL
- MIC Staphylococcus aureus (GC 3051) (Staphylococcus sp.; broth dilution, strain GC 3051): 2 µg/mL
- MIC Staphylococcus aureus (GC 3053) (Staphylococcus sp.; broth dilution, strain GC 3053): 8 µg/mL
- MIC Staphylococcus aureus (GC 4541) (Staphylococcus sp.; broth dilution, strain GC 4541): 2 µg/mL
- MIC Staphylococcus aureus (GC 4542) (Staphylococcus sp.; broth dilution, strain GC 4542): 4 µg/mL
- MIC Staphylococcus aureus-SMITH (GC 4543) (Staphylococcus sp.; broth dilution, strain GC 4543): 2 µg/mL
- MIC Staphylococcus aureus (GC 4544) (Staphylococcus sp.; broth dilution, strain GC 4544): 4 µg/mL
- MIC Staphylococcus aureus (GC 4545) (Staphylococcus sp.; broth dilution, strain GC 4545): 2 µg/mL
- MIC Staphylococcus haemolyticus (GC 4546) (Staphylococcus sp.; broth dilution, strain GC 4546): 2 µg/mL
- MIC Coagulase Negative Staphylococcus (GC 4547) (Staphylococcus sp.; broth dilution, strain GC 4547): 4 µg/mL
- MIC Coagulase Negative Staphylococcus (GC 4548) (Staphylococcus sp.; broth dilution, strain GC 4548): 2 µg/mL
- MIC Coagulase Negative Staphylococcus (GC 4549) (Staphylococcus sp.; broth dilution, strain GC 4549): 2 µg/mL
- MIC Coagulase Negative Staphylococcus (GC 4551) (Staphylococcus sp.; broth dilution, strain GC 4551): 4 µg/mL
- MIC Coagulase Negative Staphylococcus (GC 6257) (Staphylococcus sp.; broth dilution, strain GC 6257): 2 µg/mL
- MIC Escherichia coli (ATCC 25922) (Escherichia coli; Escherichia coli (ATCC 25922)): 64 µg/mL
- MIC Escherichia coli (GC 4559) (Escherichia coli; Escherichia coli (GC 4559)): 64 µg/mL
- MIC Escherichia coli (GC 4560) (Escherichia coli; Escherichia coli (GC 4560)): 2 µg/mL
- MIC Streptococcus agalactiae (GC 4564) (Streptococcus sp.; Streptococcus agalactiae (GC 4564)): 1 µg/mL
- MIC Streptococcus pneumoniae (ATCC 6301) (Streptococcus sp.; Streptococcus pneumoniae (ATCC 6301)): 0.25 µg/mL
- MIC Streptococcus pneumoniae (GC 1894) (Streptococcus sp.; Streptococcus pneumoniae (GC 1894)): <0.06 µg/mL
- MIC Streptococcus pneumoniae (GC 4565) (Streptococcus sp.; Streptococcus pneumoniae (GC 4565)): 0.25 µg/mL
- MIC Streptococcus pyogenes (GC 4563) (Streptococcus sp.; Streptococcus pyogenes (GC 4563)): 1 µg/mL
- MIC Streptococcus pneumoniae (ATCC 6301) (Streptococcus sp.; broth dilution, strain ATCC 6301): 0.25 µg/mL
- MIC Streptococcus pneumoniae (GC 1894) (Streptococcus sp.; broth dilution, strain GC 1894): <0.06 µg/mL
- MIC Streptococcus pyogenes (GC 4563) (Streptococcus sp.; broth dilution, strain GC 4563): 1 µg/mL
- MIC Streptococcus agalactiae (GC 4564) (Streptococcus sp.; broth dilution, strain GC 4564): 1 µg/mL
- MIC Streptococcus pneumoniae (GC 4565) (Streptococcus sp.; broth dilution, strain GC 4565): 0.25 µg/mL
- MIC Enterococcus avium (GC 4558) (Enterococcus sp.; Enterococcus avium (GC 4558)): 8 µg/mL
- MIC Enterococcus faecalis (ATCC 29212) (Enterococcus sp.; Enterococcus faecalis (ATCC 29212)): 8 µg/mL
- MIC Enterococcus faecalis (GC 2242) (Enterococcus sp.; Enterococcus faecalis (GC 2242)): 8 µg/mL
- MIC Enterococcus faecalis (GC 2691) (Enterococcus sp.; Enterococcus faecalis (GC 2691)): 8 µg/mL
- MIC Enterococcus faecalis (GC 3059) (Enterococcus sp.; Enterococcus faecalis (GC 3059)): 16 µg/mL
- MIC Enterococcus faecalis (GC 4552) (Enterococcus sp.; Enterococcus faecalis (GC 4552)): 8 µg/mL
- MIC Enterococcus faecalis (GC 4553) (Enterococcus sp.; Enterococcus faecalis (GC 4553)): 8 µg/mL
- MIC Enterococcus faecalis (GC 4554) (Enterococcus sp.; Enterococcus faecalis (GC 4554)): 8 µg/mL
- MIC Enterococcus faecalis (GC 6189) (Enterococcus sp.; Enterococcus faecalis (GC 6189)): 8 µg/mL
- MIC Enterococcus faecium (GC 2243) (Enterococcus sp.; Enterococcus faecium (GC 2243)): 8 µg/mL
- MIC Enterococcus faecium (GC 4556) (Enterococcus sp.; Enterococcus faecium (GC 4556)): 8 µg/mL
- MIC Enterococcus faecium (GC 4557) (Enterococcus sp.; Enterococcus faecium (GC 4557)): 4 µg/mL
- MIC Enterococcus faecalis (ATCC 29212) (Enterococcus sp.; broth dilution, strain ATCC 29212): 8 µg/mL
- MIC Enterococcus faecalis (GC 2242) (Enterococcus sp.; broth dilution, strain GC 2242): 8 µg/mL
- MIC Enterococcus faecium (GC 2243) (Enterococcus sp.; broth dilution, strain GC 2243): 8 µg/mL
- MIC Enterococcus faecalis (GC 2691) (Enterococcus sp.; broth dilution, strain GC 2691): 8 µg/mL
- MIC Enterococcus faecalis (GC 3059) (Enterococcus sp.; broth dilution, strain GC 3059): 16 µg/mL
- MIC Enterococcus faecalis (GC 4552) (Enterococcus sp.; broth dilution, strain GC 4552): 8 µg/mL
- MIC Enterococcus faecalis (GC 4553) (Enterococcus sp.; broth dilution, strain GC 4553): 8 µg/mL
- MIC Enterococcus faecalis (GC 4554) (Enterococcus sp.; broth dilution, strain GC 4554): 8 µg/mL
- MIC Enterococcus faecium (GC 4556) (Enterococcus sp.; broth dilution, strain GC 4556): 8 µg/mL
- MIC Enterococcus faecium (GC 4557) (Enterococcus sp.; broth dilution, strain GC 4557): 4 µg/mL
- MIC Enterococcus avium (GC 4558) (Enterococcus sp.; broth dilution, strain GC 4558): 8 µg/mL
- MIC Enterococcus faecalis (GC 6189) (Enterococcus sp.; broth dilution, strain GC 6189): 8 µg/mL
